In brackets after ≈: the same amount, converted by molar mass. Activity calls are given as the source filed them. The rule behind the calls is not given here.
How the values were obtained:
Cytochrome P450 1A2 = target: T1, Cytochrome P450 1A2 (Homo sapiens, UniProt P05177); assay: Reversible inhibition of CYP1A2 in human liver microsomes using phenacetin as substrate by LC/MS/MS analysis; assay type: ADME, Microsome
T1 sequence (P05177 whole entry): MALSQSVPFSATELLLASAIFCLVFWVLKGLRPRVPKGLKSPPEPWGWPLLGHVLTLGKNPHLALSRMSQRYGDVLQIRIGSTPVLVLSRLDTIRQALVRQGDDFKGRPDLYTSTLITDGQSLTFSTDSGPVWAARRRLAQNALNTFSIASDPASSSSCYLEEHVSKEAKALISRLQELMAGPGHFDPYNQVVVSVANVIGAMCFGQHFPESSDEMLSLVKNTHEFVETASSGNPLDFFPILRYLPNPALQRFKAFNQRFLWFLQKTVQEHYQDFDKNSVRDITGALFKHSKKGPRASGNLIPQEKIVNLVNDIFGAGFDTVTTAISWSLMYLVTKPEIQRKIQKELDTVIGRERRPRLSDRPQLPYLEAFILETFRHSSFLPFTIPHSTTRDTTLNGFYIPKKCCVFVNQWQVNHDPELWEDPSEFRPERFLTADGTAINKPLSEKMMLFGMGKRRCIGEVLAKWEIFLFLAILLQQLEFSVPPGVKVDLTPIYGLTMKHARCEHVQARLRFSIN

Cytochrome P450 2D6 = Cytochrome P450 2D6 (Homo sapiens, UniProt P10635)
Chain of Cytochrome P450 2D6 (P10635 whole entry): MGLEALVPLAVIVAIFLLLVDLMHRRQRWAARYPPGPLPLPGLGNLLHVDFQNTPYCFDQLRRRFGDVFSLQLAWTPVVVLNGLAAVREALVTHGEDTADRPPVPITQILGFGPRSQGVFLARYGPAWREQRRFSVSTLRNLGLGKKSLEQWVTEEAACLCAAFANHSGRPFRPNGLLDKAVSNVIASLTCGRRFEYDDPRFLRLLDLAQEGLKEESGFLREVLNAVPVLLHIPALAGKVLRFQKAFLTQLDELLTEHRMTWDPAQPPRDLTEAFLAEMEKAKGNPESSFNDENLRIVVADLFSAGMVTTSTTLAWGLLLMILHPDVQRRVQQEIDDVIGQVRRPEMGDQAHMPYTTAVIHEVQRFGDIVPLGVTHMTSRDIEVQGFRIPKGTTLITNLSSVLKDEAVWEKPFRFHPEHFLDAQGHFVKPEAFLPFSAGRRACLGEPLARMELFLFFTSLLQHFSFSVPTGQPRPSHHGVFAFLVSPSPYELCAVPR

[1] = Metabolic stability in dog hepatocytes assessed as hepatic clearance; assay type: ADME, cell-based, Canis lupus familiaris, Liver, Hepatocyte
Rattus norvegicus [2] = assay: Antiarthritic activity in Lewis rat collagen-induced arthritis model assessed as decrease in mean ankle thicknesses at 100 mg/kg, po qd administered for 11 days; assay type: functional, organism-based; parameters: dose 100 mg/kg
[3] = Thermodynamic solubility in aqueous buffer at pH 2; assay type: physicochemical; details: read-out: Therm_solubility
[4] = Half life in Beagle dog at 0.4 mg/kg, iv by LC/MS/MS analysis; assay type: ADME, organism-based, Canis lupus familiaris; parameters: dose 0.4 mg/kg, route intravenous; details: in vivo
[5] = tested on: Platelet-derived growth factor receptor alpha (Homo sapiens), P16234 [V561D]; assay: Inhibition of PDGFRalpha V561D mutant (unknown origin) at 1 uM
[6] = Plasma protein binding in rat; assay type: ADME, cell-free; details: read-out: PPB (converted)
[7] = Cmax in cynomolgus monkey at 2 mg/kg, po by LC/MS/MS analysis; assay type: ADME, organism-based, Macaca fascicularis; parameters: dose 2 mg/kg, route oral; details: in vivo
[8] = AUC in Lewis rat collagen-induced arthritis model at 20 mg/kg, po administered on day 10; assay type: ADME, organism-based; parameters: dose 20 mg/kg, route oral; details: in vivo
[9] = Hepatic clearance in human liver microsomes by LC/MS/MS analysis; assay type: ADME, Microsome
[10] = target: T2, Tyrosine-protein kinase JAK1 (Homo sapiens, UniProt P23458)
T2 sequence (P23458 whole entry): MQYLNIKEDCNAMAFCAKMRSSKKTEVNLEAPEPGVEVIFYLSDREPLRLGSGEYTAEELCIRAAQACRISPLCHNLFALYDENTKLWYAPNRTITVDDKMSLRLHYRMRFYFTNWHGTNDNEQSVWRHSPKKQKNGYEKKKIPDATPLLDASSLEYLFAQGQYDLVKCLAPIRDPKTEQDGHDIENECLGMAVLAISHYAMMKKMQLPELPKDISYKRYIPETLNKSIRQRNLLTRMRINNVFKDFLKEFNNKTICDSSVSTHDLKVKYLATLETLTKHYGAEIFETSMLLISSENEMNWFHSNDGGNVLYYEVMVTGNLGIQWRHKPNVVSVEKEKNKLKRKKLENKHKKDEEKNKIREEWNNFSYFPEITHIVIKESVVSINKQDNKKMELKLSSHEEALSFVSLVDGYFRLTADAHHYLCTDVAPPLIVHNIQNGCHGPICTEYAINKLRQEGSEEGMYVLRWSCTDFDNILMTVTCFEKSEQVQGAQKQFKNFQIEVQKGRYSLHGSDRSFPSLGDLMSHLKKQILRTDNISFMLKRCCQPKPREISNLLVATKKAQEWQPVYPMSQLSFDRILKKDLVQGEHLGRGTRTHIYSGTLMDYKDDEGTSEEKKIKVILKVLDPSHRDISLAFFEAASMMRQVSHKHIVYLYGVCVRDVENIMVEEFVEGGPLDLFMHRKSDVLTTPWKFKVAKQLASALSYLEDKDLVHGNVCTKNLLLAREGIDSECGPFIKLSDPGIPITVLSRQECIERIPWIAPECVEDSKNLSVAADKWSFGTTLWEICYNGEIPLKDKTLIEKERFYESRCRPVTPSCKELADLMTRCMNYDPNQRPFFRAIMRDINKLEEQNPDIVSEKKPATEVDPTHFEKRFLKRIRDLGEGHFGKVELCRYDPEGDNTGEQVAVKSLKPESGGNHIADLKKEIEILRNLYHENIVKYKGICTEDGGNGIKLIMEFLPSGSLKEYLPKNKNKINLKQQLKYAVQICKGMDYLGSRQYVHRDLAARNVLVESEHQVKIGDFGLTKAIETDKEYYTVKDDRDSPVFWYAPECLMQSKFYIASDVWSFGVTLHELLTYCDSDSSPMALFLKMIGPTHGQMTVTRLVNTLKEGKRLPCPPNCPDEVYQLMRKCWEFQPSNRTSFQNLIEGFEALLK

[11] = AUC in cynomolgus monkey at 2 mg/kg, po by LC/MS/MS analysis; assay type: ADME, organism-based, Macaca fascicularis; parameters: dose 2 mg/kg, route oral; details: plasma
[12] = target: T2, Tyrosine-protein kinase JAK1; remark: listed apart in the source
[13] = Clearance in Sprague-Dawley rat at 0.4 mg/kg, iv by LC/MS/MS analysis; assay type: ADME, organism-based; parameters: dose 0.4 mg/kg, route intravenous; details: in vivo
[14] = AUC in Beagle dog at 2 mg/kg, po by LC/MS/MS analysis; assay type: ADME, organism-based, Canis lupus familiaris; parameters: dose 2 mg/kg, route oral; details: plasma
[15] = target: Voltage-gated inwardly rectifying potassium channel KCNH2 (Homo sapiens, UniProt Q12809)
Chain of Voltage-gated inwardly rectifying potassium channel KCNH2 (Q12809 whole entry): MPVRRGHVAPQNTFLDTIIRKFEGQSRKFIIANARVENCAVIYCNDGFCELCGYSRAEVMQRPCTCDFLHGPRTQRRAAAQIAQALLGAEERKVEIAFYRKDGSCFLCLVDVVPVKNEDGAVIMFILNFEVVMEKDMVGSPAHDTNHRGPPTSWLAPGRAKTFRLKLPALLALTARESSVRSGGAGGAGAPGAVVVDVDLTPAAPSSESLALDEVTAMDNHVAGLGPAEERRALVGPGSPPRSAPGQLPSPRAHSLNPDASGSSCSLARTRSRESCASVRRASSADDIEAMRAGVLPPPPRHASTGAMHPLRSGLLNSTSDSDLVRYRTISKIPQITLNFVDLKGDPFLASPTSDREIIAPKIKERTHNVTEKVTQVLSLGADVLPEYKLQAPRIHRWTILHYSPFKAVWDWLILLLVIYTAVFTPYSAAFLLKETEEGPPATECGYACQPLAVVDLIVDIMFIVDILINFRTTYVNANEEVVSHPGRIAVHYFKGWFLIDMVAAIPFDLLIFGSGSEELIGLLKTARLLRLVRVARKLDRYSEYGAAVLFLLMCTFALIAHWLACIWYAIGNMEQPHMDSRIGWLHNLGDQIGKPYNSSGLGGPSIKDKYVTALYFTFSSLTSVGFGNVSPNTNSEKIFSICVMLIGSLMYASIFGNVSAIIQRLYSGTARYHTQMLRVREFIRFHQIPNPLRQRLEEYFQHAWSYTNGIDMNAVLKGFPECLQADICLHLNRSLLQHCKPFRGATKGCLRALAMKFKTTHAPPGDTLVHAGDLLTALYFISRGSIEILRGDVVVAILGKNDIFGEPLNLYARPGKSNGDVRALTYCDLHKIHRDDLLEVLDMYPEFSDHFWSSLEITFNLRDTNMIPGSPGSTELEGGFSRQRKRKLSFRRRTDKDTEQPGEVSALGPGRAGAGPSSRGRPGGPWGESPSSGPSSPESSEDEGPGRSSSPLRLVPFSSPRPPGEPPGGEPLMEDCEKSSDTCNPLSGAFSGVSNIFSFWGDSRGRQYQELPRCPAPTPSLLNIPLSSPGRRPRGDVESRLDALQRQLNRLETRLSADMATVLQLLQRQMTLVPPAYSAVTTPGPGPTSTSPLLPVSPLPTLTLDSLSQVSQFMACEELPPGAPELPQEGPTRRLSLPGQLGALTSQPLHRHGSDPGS

[16] = AUC in Lewis rat collagen-induced arthritis model at 500 mg/kg, po administered on day 10; assay type: ADME, organism-based; parameters: dose 500 mg/kg, route oral; details: in vivo
[17] = Plasma protein binding in cynomolgus monkey; assay type: ADME, cell-free, Macaca fascicularis; details: read-out: PPB (converted)
Cytochrome P450 2C9 = Cytochrome P450 2C9 (Homo sapiens, UniProt P11712)
Chain of Cytochrome P450 2C9 (P11712 whole entry): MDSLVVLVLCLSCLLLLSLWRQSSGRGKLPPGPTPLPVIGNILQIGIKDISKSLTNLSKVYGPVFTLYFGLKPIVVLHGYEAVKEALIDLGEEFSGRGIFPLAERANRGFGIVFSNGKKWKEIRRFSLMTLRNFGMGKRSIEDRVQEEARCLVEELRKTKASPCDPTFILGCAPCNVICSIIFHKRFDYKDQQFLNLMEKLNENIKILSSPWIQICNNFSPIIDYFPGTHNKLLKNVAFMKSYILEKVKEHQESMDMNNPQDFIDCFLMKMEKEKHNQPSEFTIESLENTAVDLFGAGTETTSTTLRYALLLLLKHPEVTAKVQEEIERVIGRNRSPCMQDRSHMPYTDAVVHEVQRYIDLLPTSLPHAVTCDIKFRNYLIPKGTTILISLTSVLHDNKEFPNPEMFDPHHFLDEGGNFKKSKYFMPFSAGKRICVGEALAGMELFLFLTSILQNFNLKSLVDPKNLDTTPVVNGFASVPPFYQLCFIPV

[18] = target: T2, Tyrosine-protein kinase JAK1; remark: listed apart in the source
[19] = target: T3, Non-receptor tyrosine-protein kinase TYK2 (Homo sapiens, UniProt P29597)
T3 sequence (P29597 whole entry): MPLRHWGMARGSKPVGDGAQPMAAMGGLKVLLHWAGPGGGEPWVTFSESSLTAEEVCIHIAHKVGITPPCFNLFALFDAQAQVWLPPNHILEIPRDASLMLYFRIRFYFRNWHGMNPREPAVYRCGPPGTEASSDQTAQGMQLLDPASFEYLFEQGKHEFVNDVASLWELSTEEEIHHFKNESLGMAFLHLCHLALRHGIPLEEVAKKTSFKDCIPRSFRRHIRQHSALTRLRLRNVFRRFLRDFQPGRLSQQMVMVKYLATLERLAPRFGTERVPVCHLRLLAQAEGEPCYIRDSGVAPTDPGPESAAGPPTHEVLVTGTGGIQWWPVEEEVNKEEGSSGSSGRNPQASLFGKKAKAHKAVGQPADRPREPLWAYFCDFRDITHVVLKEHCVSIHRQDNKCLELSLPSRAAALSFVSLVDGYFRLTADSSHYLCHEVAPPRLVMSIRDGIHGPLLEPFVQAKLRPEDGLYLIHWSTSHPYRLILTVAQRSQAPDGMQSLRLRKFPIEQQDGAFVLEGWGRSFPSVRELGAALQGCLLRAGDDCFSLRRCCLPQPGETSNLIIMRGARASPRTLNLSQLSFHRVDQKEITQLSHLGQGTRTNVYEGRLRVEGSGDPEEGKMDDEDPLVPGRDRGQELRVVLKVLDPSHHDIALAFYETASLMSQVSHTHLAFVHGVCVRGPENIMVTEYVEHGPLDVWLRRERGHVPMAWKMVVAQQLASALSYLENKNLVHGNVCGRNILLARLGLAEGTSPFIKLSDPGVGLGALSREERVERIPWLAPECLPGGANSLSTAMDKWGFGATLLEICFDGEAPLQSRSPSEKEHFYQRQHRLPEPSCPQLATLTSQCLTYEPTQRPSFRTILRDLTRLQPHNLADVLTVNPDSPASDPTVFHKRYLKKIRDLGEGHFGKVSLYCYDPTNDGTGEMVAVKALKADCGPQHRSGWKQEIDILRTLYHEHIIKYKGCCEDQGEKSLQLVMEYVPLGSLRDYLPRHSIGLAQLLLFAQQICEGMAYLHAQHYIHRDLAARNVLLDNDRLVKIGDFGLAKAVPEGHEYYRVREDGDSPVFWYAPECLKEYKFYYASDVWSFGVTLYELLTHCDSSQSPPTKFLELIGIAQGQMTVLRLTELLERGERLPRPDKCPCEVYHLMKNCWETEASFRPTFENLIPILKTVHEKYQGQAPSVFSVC

[20] = target: Tyrosine-protein kinase JAK3 (Homo sapiens, UniProt P52333)
[21] = Plasma protein binding in dog; assay type: ADME, cell-free, Canis lupus familiaris; details: read-out: PPB (converted)
[22] = Half life in cynomolgus monkey at 0.4 mg/kg, iv by LC/MS/MS analysis; assay type: ADME, organism-based, Macaca fascicularis; parameters: dose 0.4 mg/kg, route intravenous; details: in vivo
[23] = Half life in Sprague-Dawley rat at 0.4 mg/kg, iv by LC/MS/MS analysis; assay type: ADME, organism-based; parameters: dose 0.4 mg/kg, route intravenous; details: in vivo
[24] = Metabolic stability in rat hepatocytes assessed as hepatic clearance; assay type: ADME, cell-based, Liver, Hepatocyte
[25] = Hepatic clearance in human hepatocytes after 1 to 4 hrs by LC/MS/MS analysis; assay type: ADME, cell-based, Liver, Hepatocyte
[26] = AUC in Lewis rat collagen-induced arthritis model at 500 mg/kg, po administered on day 20; assay type: ADME, organism-based; parameters: dose 500 mg/kg, route oral; details: in vivo
Cytochrome P450 3A4 [27] = target: T4, Cytochrome P450 3A4 (Homo sapiens, UniProt P08684); assay: Reversible inhibition of CYP3A4 in human liver microsomes using midazolam as substrate by LC/MS/MS analysis; assay type: ADME, Microsome
T4 sequence (P08684 whole entry): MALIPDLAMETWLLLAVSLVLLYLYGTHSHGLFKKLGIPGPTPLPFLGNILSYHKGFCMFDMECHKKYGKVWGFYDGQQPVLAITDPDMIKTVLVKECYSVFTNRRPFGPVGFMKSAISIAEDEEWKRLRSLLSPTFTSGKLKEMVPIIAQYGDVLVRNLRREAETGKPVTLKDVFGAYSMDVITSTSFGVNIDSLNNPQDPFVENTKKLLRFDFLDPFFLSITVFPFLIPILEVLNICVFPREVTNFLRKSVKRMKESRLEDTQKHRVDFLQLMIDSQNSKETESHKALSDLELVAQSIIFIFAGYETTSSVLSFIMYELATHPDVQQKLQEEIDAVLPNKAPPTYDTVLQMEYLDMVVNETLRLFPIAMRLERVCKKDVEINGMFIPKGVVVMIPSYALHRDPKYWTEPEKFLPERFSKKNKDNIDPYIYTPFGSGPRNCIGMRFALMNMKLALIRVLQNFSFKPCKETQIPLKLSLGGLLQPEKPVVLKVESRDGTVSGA

Rattus norvegicus [28] = assay: Antiarthritic activity in Lewis rat collagen-induced arthritis model assessed as decrease in mean ankle thicknesses at 500 mg/kg, po qd administered for 11 days; assay type: functional, organism-based; parameters: dose 500 mg/kg
[29] = target: T3, Non-receptor tyrosine-protein kinase TYK2; remark: listed apart in the source
[30] = Oral bioavailability in Sprague-Dawley rat at 2 mg/kg by LC/MS/MS analysis; assay type: ADME, organism-based; details: Sprague-Dawley, in vivo
[31] = Metabolic stability in monkey hepatocytes assessed as hepatic clearance; assay type: ADME, cell-based, Macaca mulatta, Liver, Hepatocyte; details: rhesus monkey
Rattus norvegicus [32] = assay: Antiarthritic activity in Lewis rat collagen-induced arthritis model assessed as decrease in mean ankle thicknesses at 20 mg/kg, po qd administered for 11 days; assay type: functional, organism-based; parameters: dose 20 mg/kg
[33] = Apparent permeability across basolateral to apical side in dog MDCK cells; assay type: ADME, cell-based, Canis lupus familiaris
Cytochrome P450 3A4 [34] = target: T4, Cytochrome P450 3A4; assay: Reversible inhibition of CYP3A4 in human liver microsomes using testosterone as substrate by LC/MS/MS analysis; assay type: ADME, Microsome
[35] = AUC in Lewis rat collagen-induced arthritis model at 20 mg/kg, po administered on day 20; assay type: ADME, organism-based; parameters: dose 20 mg/kg, route oral; details: in vivo
[36] = Clearance in Beagle dog at 0.4 mg/kg, iv by LC/MS/MS analysis; assay type: ADME, organism-based, Canis lupus familiaris; parameters: dose 0.4 mg/kg, route intravenous; details: in vivo
[37] = Clearance in cynomolgus monkey at 0.4 mg/kg, iv by LC/MS/MS analysis; assay type: ADME, organism-based, Macaca fascicularis; parameters: dose 0.4 mg/kg, route intravenous; details: in vivo
[38] = Cmax in Sprague-Dawley rat at 2 mg/kg, po by LC/MS/MS analysis; assay type: ADME, organism-based; parameters: dose 2 mg/kg, route oral; details: in vivo
[39] = AUC in Lewis rat collagen-induced arthritis model at 100 mg/kg, po administered on day 10; assay type: ADME, organism-based; parameters: dose 100 mg/kg, route oral; details: in vivo
[40] = Thermodynamic solubility in aqueous buffer at pH 7.4; assay type: physicochemical; details: read-out: Therm_solubility
[41] = Cmax in Beagle dog at 2 mg/kg, po by LC/MS/MS analysis; assay type: ADME, organism-based, Canis lupus familiaris; parameters: dose 2 mg/kg, route oral; details: in vivo
[42] = AUC in Sprague-Dawley rat at 2 mg/kg, po by LC/MS/MS analysis; assay type: ADME, organism-based; parameters: dose 2 mg/kg, route oral; details: plasma
[43] = Oral bioavailability in Beagle dog at 2 mg/kg by LC/MS/MS analysis; assay type: ADME, organism-based, Canis lupus familiaris; details: Beagle, in vivo
[44] = AUC in Lewis rat collagen-induced arthritis model at 100 mg/kg, po administered on day 20; assay type: ADME, organism-based; parameters: dose 100 mg/kg, route oral; details: in vivo
[45] = Oral bioavailability in cynomolgus monkey at 2 mg/kg by LC/MS/MS analysis; assay type: ADME, organism-based, Macaca fascicularis; details: in vivo
[46] = Apparent permeability across apical to basolateral side in dog MDCK cells; assay type: ADME, cell-based, Canis lupus familiaris
Cytochrome P450 2C19 = Cytochrome P450 2C19 (Homo sapiens, UniProt P33261)

For `C[C@@H](O)c1nc2cnc3[nH]ccc3c2n1[C@H]1CC[C@H](C#N)CC1`, the IC50 (Cytochrome P450 1A2) was greater than 10 µM, the IC50 (Cytochrome P450 2D6) was greater than 10 µM and the CLhep predicted [1] was 3 mL/min/kg. For the same compound, the Activity (Rattus norvegicus [2]) was “Active”, the solubility thermodynamic [3] was greater than 4000 µM and the half-life [4] was 2.2 h. The inhibition [5] was 55%, the fraction unbound [6] was 0.62 and the Cmax [7] was 630 nM. For the same compound, the AUC [8] was 15 µM·h, the CLhep predicted [9] was 3.3 mL/min/kg and the EC50 [10] was 0.13 µM. It also gave an AUC [11] of 3.9 µM·h, a Ki [12] of 0.0019 µM and a clearance [13] of 60 mL/min/kg. It also gave an AUC [14] of 8.3 µM·h, an IC50 [15] greater than 100 µM and an AUC [16] of 467 µM·h. For the same compound, the fraction unbound [17] was 0.4, the IC50 (Cytochrome P450 2C9) was greater than 10 µM and the EC50 [18] was 0.12 µM. For the same compound, the Ki [19] was 0.012 µM, the Ki [20] was 0.28 µM and the fraction unbound [21] was 0.53. For the same compound, the half-life [22] was 1.7 h, the half-life [23] was 0.5 h and the CLhep predicted [24] was 3.7 mL/min/kg. The CLhep predicted [25] was 1.7 mL/min/kg, the AUC [26] was 269 µM·h and the IC50 (Cytochrome P450 3A4 [27]) was 7.9 µM. For the same compound, the Activity (Rattus norvegicus [28]) was “Active”, the EC50 [29] was 5.6 µM and the bioavailability [30] was 52%. The CLhep predicted [31] was 2.4 mL/min/kg, the Activity (Rattus norvegicus [32]) was “Active” and the Papp B→A [33] was 4.7 ×10⁻⁶ cm/s. It also gave an IC50 (Cytochrome P450 3A4 [34]) greater than 10 µM, an AUC [35] of 10.6 µM·h and a clearance [36] of 16 mL/min/kg. It also gave a clearance [37] of 18 mL/min/kg, a Cmax [38] of 420 nM and an AUC [39] of 59.6 µM·h. For the same compound, the solubility thermodynamic [40] was 1900 µM (≈ 588 µg/mL), the Cmax [41] was 2100 nM and the AUC [42] was 0.94 µM·h. For the same compound, the bioavailability [43] was 119%, the AUC [44] was 50.1 µM·h and the bioavailability [45] was 65%. It also gave a Papp A→B [46] of 2.7 ×10⁻⁶ cm/s and an IC50 (Cytochrome P450 2C19) greater than 10 µM.

— ChEMBL document CHEMBL2385026, “Identification of C-2 hydroxyethyl imidazopyrrolopyridines as potent JAK1 inhibitors with favorable physicochemical properties and high selectivity over JAK2” (J Med Chem, 2013)
